In US7709484B1, “Substituted melanocortin receptor-specific piperazine compounds” (Palatin Technologies, Inc., priority 2004, dated 2010):

Key:
[1] = target: T1, B-16 mouse melanoma cells (containing MC1-R) (Mus musculus, UniProt Q01727); assay: Competitive inhibition binding assay, 125I-NDP-α-MSH, B-16 mouse melanoma cell membranes; details: 1 μM test compound; 0.4 nM 125I-NDP-α-MSH; mean of triplicate; results less than 0% reported as 0%; read-out: Inhibition at 1 μM MC1-R (murine)
T1 construct: B-16 mouse melanoma cells (containing MC1-R); endogenous in cells; host or cells: B-16 mouse melanoma cells
Experimental: (§1) Competitive inhibition assay. A competitive inhibition binding assay was conducted using membranes prepared from hMC1-R or B-16 mouse melanoma cells (containing MC1-R), hMC3-R, hMC4-R, and hMC5-R, and using 0.4 nM ^125I-NDP-α-MSH (New England Nuclear, Boston, Mass., USA) in 50 mM HEPES buffer containing 1 mM MgCl2, 2 mM CaCl2, and 5 mM KCl, at pH 7.2. The assay tube also contained a chosen concentration of the test compound of this invention, typically a 1 μM concentration, for determining its efficacy in inhibiting the binding of ^125I-NDP-α-MSH to its receptor. Non-specific binding was measured by complete inhibition of binding of ^125I-NDP-α-MSH in the assay with the presence of 1 μM α-MSH.
(§2) Incubation was for 90 minutes at room temperature, after which the assay mixture was filtered and the membranes washed three times with ice cold buffer. The filter was dried and counted in a gamma counter for remaining radioactivity bound to the membranes. 100% specific binding was defined as the difference in radioactivity (cpm) bound to cell membranes in the absence and presence of 1 μM α-MSH. The cpm obtained in the presence of test compounds are normalized with respect to 100% specific binding to determine the percent inhibition of ^125I-NDP-a-MSH binding. Each assay was conducted in triplicate and the actual mean values are described, with results less than 0% reported as 0%.

[2] = target: hMC3-R (Homo sapiens, UniProt P41968); assay: Competitive inhibition binding assay, 125I-NDP-α-MSH, hMC3-R membranes; details: 1 μM test compound; 0.4 nM 125I-NDP-α-MSH; mean of triplicate; results less than 0% reported as 0%; read-out: Inhibition at 1 μM MC3-R
Experimental: as §1, §2

[3] = target: hMC5-R (Homo sapiens, UniProt P33032); assay: Competitive inhibition binding assay, 125I-NDP-α-MSH, hMC5-R membranes; details: 1 μM test compound; 0.4 nM 125I-NDP-α-MSH; mean of triplicate; results less than 0% reported as 0%; read-out: Inhibition at 1 μM MC5-R
Experimental: as §1, §2

[4] = target: hMC4-R (Homo sapiens, UniProt P32245); assay: Competitive inhibition binding assay, 125I-NDP-α-MSH, hMC4-R membranes; details: 1 μM test compound; 0.4 nM 125I-NDP-α-MSH; mean of triplicate; results less than 0% reported as 0%; read-out: Inhibition at 1 μM MC4-R
Experimental: as §1, §2

hMC3-R, sequence (P41968 whole entry): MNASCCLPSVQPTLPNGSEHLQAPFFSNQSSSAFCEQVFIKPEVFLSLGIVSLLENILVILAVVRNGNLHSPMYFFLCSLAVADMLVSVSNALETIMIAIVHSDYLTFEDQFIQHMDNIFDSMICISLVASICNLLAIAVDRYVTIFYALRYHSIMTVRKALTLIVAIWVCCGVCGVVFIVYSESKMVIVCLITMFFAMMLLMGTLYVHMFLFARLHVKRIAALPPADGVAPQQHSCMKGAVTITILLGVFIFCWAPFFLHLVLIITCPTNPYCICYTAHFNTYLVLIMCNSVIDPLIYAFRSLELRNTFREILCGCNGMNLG
hMC4-R, sequence (P32245 whole entry): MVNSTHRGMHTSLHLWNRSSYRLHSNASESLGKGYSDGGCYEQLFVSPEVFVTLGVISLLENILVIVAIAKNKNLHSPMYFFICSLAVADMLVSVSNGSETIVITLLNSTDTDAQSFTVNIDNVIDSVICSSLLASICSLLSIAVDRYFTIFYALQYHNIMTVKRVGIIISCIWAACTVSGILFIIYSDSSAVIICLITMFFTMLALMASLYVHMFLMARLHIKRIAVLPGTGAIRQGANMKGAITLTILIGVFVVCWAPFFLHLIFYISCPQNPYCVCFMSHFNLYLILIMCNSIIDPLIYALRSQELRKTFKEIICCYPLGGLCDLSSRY
T1 sequence (Q01727 whole entry): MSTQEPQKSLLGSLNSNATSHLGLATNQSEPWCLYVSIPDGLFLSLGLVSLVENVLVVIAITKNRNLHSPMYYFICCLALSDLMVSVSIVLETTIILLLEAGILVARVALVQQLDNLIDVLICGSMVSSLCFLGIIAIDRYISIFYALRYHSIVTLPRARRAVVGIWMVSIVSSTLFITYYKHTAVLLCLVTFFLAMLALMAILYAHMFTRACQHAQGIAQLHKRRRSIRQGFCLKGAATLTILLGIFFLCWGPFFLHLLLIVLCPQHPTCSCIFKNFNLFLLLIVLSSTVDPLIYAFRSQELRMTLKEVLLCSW
hMC5-R, sequence (P33032 whole entry): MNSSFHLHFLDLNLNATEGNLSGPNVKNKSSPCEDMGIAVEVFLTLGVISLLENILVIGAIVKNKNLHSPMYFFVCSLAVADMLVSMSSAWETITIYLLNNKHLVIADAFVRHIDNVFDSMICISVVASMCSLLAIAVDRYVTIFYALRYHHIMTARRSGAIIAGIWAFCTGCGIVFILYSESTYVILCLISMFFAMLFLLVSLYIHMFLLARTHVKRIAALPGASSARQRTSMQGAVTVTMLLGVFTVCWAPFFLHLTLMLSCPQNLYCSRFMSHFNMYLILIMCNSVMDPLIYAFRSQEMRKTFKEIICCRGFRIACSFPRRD

Structure (SMILES)	inhibition at 1 µM [1]	inhibition at 1 µM [2]	inhibition at 1 µM [3]	inhibition at 1 µM [4]
CC(=O)N[C@H](Cc1ccc(Cl)cc1)C(=O)N1CCN[C@H](Cc2ccc3ccccc3c2)C1 [Example 23, N—[(R)-1-(4-Chloro-benzyl)-2-((R)-3-naphthalen-2-ylmethyl-piperazin-1-yl)-2-oxo-ethyl]-acetamide]	6%	0%	4%	13%
N[C@H](Cc1ccccc1Cl)C(=O)N1CCN[C@H](Cc2ccc3ccccc3c2)C1 [Example 11, (R)-2-Amino-3-(2-chloro-phenyl)-1-((R)-3-naphthalen-2-ylmethyl-piperazin-1-yl)-propan-1-one]	4%	19%	0%	9%
N[C@@H](Cc1c[nH]cn1)C(=O)N[C@H](Cc1ccccc1Cl)C(=O)N1CCN[C@H](Cc2ccc3ccccc3c2)C1 [Example 12, (S)-2-Amino-N—[(R)-1-(2-chloro-benzyl)-2-((R)-3-naphthalen-2-ylmethyl-piperazin-1-yl)-2-oxo-ethyl]-3-(1H-imidazol-4-yl)-propionamide]	52%	18%	12%	0%
Cc1ccc(S(=O)(=O)N[C@H](Cc2ccc(Cl)cc2)C(=O)N2CCN[C@H](Cc3ccc4ccccc4c3)C2)cc1 [Example 26, N—[(R)-1-(4-Chloro-benzyl)-2-((R)-3-naphthalen-2-ylmethyl-piperazin-1-yl)-2-oxo-ethyl]-4-methyl-benzenesulfonamide]	10%	14%	20%	22%
N[C@H](Cc1ccccc1)C(=O)N1C[C@@H](Cc2ccccc2)NC[C@@H]1Cc1ccccc1 [Example 17, (R)-2-Amino-1-((2S,5R)-2,5-dibenzyl-piperazin-1-yl)-3-phenyl-propan-1-One]	0%	0%	3%	6%
N[C@@H](Cc1c[nH]cn1)C(=O)N[C@H](Cc1ccc(Cl)cc1)C(=O)N1CCN[C@H](Cc2ccc3ccccc3c2)C1 [Example 20, (S)-2-Amino-N—[(R)-1-(4-chloro-benzyl)-2-((R)-3-naphthalen-2-ylmethyl-piperazin-1-yl)-2-oxo-ethyl]-3-(1H-imidazol-4-yl)-propionamide]	71%	18%	0%	25%
O=C(N[C@H](Cc1ccc(Cl)cc1)C(=O)N1CCN[C@H](Cc2ccc3ccccc3c2)C1)[C@H]1Cc2ccccc2CN1 [Example 21, (R)-1,2,3,4-Tetrahydro-isoquinoline-3-carboxylic acid [(R)-1-(4-chloro-benzyl)-2-((R)-3-naphthalen-2-ylmethyl-piperazin-1-yl)-2-oxo-ethyl]-amide]	6%	26%	14%	30%
N[C@H](Cc1ccc(Cl)cc1Cl)C(=O)N1C[C@@H](Cc2ccccc2)NC[C@@H]1Cc1ccccc1 [Example 16, (R)-2-Amino-1-((2S,5R)-2,5-dibenzyl-piperazin-1-yl)-3-(2,4-dichloro-phenyl)-propan-1-one]	0%	0%	0%	14%
O=C(CCCc1ccccc1)N[C@H](Cc1ccc(Cl)cc1)C(=O)N1CCN[C@H](Cc2ccc3ccccc3c2)C1 [Example 24, N—[(R)-1-(4-Chloro-benzyl)-2-((R)-3-naphthalen-2-ylmethyl-piperazin-1-yl)-2-oxo-ethyl]-4-phenyl-butyramide]	5%	3%	13%	20%
N[C@H](Cc1ccc2ccccc2c1)C(=O)N1C[C@@H](Cc2ccccc2)NC[C@@H]1Cc1ccccc1 [Example 15, (R)-2-Amino-1-((2S,5R)-2,5-dibenzyl-piperazin-1-yl)-3-naphthalen-2-yl-propan-1-one]	0%	0%	3%	18%

Other lines, results leading:

inhibition at 1 µM [1]	inhibition at 1 µM [2]	inhibition at 1 µM [3]	inhibition at 1 µM [4]	Structure (SMILES)
0%	0%	0%	0%	N[C@@H](Cc1ccccc1)C(=O)N1C[C@H](Cc2ccccc2)NC[C@H]1Cc1ccccc1 [Example 9, (S)-2-Amino-1-((2R,5S)-2,5-dibenzyl-piperazin-1-yl)-3-phenyl-propan-1-one]
5%	6%	18%	19%	O=C(Cc1ccccc1)N[C@H](Cc1ccc(Cl)cc1)C(=O)N1CCN[C@H](Cc2ccc3ccccc3c2)C1 [Example 25, N—[(R)-1-(4-Chloro-benzyl)-2-((R)-3-naphthalen-2-ylmethyl-piperazin-1-yl)-2-oxo-ethyl]-2-phenyl-acetamide]
46%	33%	23%	56%	N[C@@H](COCc1ccccc1)C(=O)N[C@H](Cc1ccccc1Cl)C(=O)N1CCN[C@H](Cc2ccc3ccccc3c2)C1 [Example 14, (S)-2-Amino-3-benzyloxy-N—[(R)-1-(2-chloro-benzyl)-2-((R)-3-naphthalen-2-ylmethyl-piperazin-1-yl)-2-oxo-ethyl]-propionamide]
24%	17%	20%	19%	O=C(N[C@H](Cc1ccccc1Cl)C(=O)N1CCN[C@H](Cc2ccc3ccccc3c2)C1)[C@H]1Cc2ccccc2CN1 [Example 13, (R)-1,2,3,4-Tetrahydro-isoquinoline-3-carboxylic acid [(R)-1-(2-chloro-benzyl)-2-((R)-3-naphthalen-2-ylmethyl-piperazin-1-yl)-2-oxo-ethyl]-amide]
10%	0%	0%	4%	CC(=O)Oc1ccccc1C(=O)N[C@H](Cc1ccc(Cl)cc1)C(=O)N1CCN[C@H](Cc2ccc3ccccc3c2)C1 [Example 27]
2%	54%	27%	36%	N[C@@H](COCc1ccccc1)C(=O)N[C@H](Cc1ccc(Cl)cc1)C(=O)N1CCN[C@H](Cc2ccc3ccccc3c2)C1 [Example 22, (S)-2-Amino-3-benzyloxy-N—[(R)-1-(4-chloro-benzyl)-2-((R)-3-naphthalen-2-ylmethyl-piperazin-1-yl)-2-oxo-ethyl]-propionamide]
5%	0%	0%	21%	N[C@H](Cc1ccc(Cl)cc1)C(=O)N1CCN[C@H](Cc2ccc3ccccc3c2)C1 [Example 19, (R)-2-Amino-3-(4-chloro-phenyl)-1-((R)-3-naphthalen-2-ylmethyl-piperazin-1-yl)-propan-1-one]
0%	0%	10%	0%	N[C@H](Cc1ccc2ccccc2c1)C(=O)N1C[C@H](Cc2ccccc2)NC[C@H]1Cc1ccccc1 [Example 8, (R)-2-Amino-1-((2R,5S)-2,5-dibenzyl-piperazin-1-yl)-3-naphthalen-2-yl-propan-1-one]
